Laboratory results: patent publication EP3974434B1, “MACROLIDE DERIVATIVES, PREPARATION METHOD AND APPLICATION THEREOF” (Zhejiang Hisun Pharmaceutical Co., Ltd., priority 2019, dated 2020)

System: H2228 (human lung cancer cells)
Assay: Cell proliferation assay (CellTiter-Glo), H2228
Format: cell-based
Conditions: NCI-H2228, 72 hours, EML4-ALK fusion
From the text: The following method was used to determine the effects of the compounds of the present invention on cell proliferation. H2228 cells (containing EML4-ALK fusion) were purchased from Cell Resource Center of Shanghai Institutes for Biological Sciences, Chinese Academy of Sciences. KARPAS-299 cells (containing NPM-ALK fusion) were purchased from Nanjing COBIOER Biotechnology Co., Ltd. The above two cell lines were used to determine the inhibition of the compounds on cell activities. The cells were cultured in an RPMI 1640 medium containing 10% fetal bovine serum, 100 U penicillin, 100 µg/mL streptomycin, and 1 mM Sodium Pyruvate. The cells were cultured in a 5% CO2 incubator at 37°C. The activity of the cells was determined by CellTiter-Glo® Luminescent Cell Viability Assay kit (Promega, article number: G7573).
The experimental methods were operated according to the steps in the kit instruction, and were briefly described as follows: a test compound was first dissolved in DMSO to prepare a storage solution, and then diluted in gradient with the corresponding cell culture medium to prepare a test sample. […] After the culture, 50 µL of CellTiter-Glo detection solution was added to each well, shaken for 5 minutes, and then stood for 10 minutes, and the luminescence values of each well were read on the microplate reader using a Luminance mode. […]

IC50: 164 nM
Structure (SMILES): C[C@H]1Nc2ccn3ncc(c3n2)C(=O)NC[C@@]2(C)Cc3cc(F)cc1c3O2 [Example 8, (3R,11R)-6-fluoro-3,11-dimethyl-10-oxa-2,13,17,1 8,21-pentaazapentacyclo[13.5.2.1^8,11.0^4,9.0^18,22]tric osa-1(21),4,6,8,15(22),16,19-heptaen-14-one]
